Where a name gives a salt, the structure may show the parent alone.
Experiments:
Format in all cases: in vivo
[1] = tested on: transgenic mouse (MMTV-Wnt-1) spontaneous breast cancer; assay: Antitumor effect in serial transplantation model of transgenic mouse (MMTV-Wnt-1) spontaneous breast cancer, C57BL/6J mice
Procedure: Spontaneous breast cancer of a transgenic mouse (MMTV-Wnt-1, The Jackson Laboratory) caused to locally express Wnt-1 in mammary gland epithelial cells was collected, transplanted in a mouse of background strain (C57BL/6J, Charles River Laboratories Japan, Inc.) by using a trocar, and passaged. The tumor thus transplanted and passaged was excised when becoming approximately 1.5 g, and prepared into approximately 30 mg of a fragment, which was subcutaneously transplanted to the sides of the bodies of five mice (C57BL/6J) each of a control group, an E7386 12.5, 25 or 50 mg/kg alone administration group, a lenvatinib mesylate 10 mg/kg alone administration group, and a combined administration group of 12.5, 25 or 50 mg/kg E7386 and 10 mg/kg lenvatinib mesylate. After confirmation of engraftment of the tumor, E7386 (12.5, 25 or 50 mg/kg, b.d.s., 14 days, oral administration) and lenvatinib mesylate (10 mg/kg, q.d., 14 days, oral administration) were administered alone or in combination to the alone administration group or the combined administration group. For the administration, E7386 was dissolved in 0.1 mol/L hydrochloric acid, and lenvatinib mesylate was dissolved in 3 mmol/L hydrochloric acid. 0.1 mol/L hydrochloric acid (b.d.s., 14 days) was administered to the control group.
(§1) When the start day of administration was defined as day 1, the major axis and minor axis of tumor developed in each mouse were then measured at day 4, day 8, day 11, and day 15 by using Digimatic Caliper (Mitutoyo Corp.).
The tumor volume and the relative tumor volume (RTV) were calculated according to the following expressions. Tumor volume (mm^3)=Tumor major axis (mm)×Tumor minor axis^2 (mm)/2 Relative tumor volume (RTV)=Tumor volume at the measurement day/Tumor volume at the start day of administration

[2] = tested on: human anaplastic thyroid cancer cell line HTC/C3; assay: Antitumor effect in human anaplastic thyroid cancer cell line HTC/C3 transplantation model, nude mice
Procedure: A human anaplastic thyroid cancer cell line HTC/C3 (JCBR Cell Bank) was cultured by using D-MEM High Glucose medium (Wako Pure Chemical Industries, Ltd.) containing 10% FBS in a 5% CO2 incubator under conditions of 37° C. When the cells became an approximately 80% confluent state, the cells were recovered by using trypsin-EDTA. A suspension was prepared by adding Hank's balanced salt solution containing 50% Matrigel to the cells so as to be 1.0×10^7 cells/mL. 0.1 mL of the obtained cell suspension was subcutaneously transplanted to the sides of the bodies of five nude mice (CAnN.Cg-Foxn1^nu/CrlCrlj, Charles River Laboratories Japan, Inc.) each of a control group, an E7386 12.5, 25 or 50 mg/kg alone administration group, a lenvatinib mesylate 10 mg/kg alone administration group, and a combined administration group of 12.5, 25 or 50 mg/kg E7386 and 10 mg/kg lenvatinib mesylate. From 11 days after the transplantation, E7386 (12.5, 25, or 50 mg/kg, b.d.s., 14 days, oral administration) and lenvatinib mesylate (10 mg/kg, q.d., 14 days, oral administration) were administered alone or in combination to the alone administration group or the combined administration group. For the administration, E7386 was dissolved in 0.1 mol/L hydrochloric acid, and lenvatinib mesylate was dissolved in 3 mmol/L hydrochloric acid. 0.1 mol/L hydrochloric acid (b.d.s., 14 days) was administered to the control group.
as §1
(§2) The tumor volume and the relative tumor volume (RTV) were calculated according to the following expressions. Tumor volume (mm^3)=Tumor major axis (mm)×Tumor minor axis^2 (mm^2)/2 Relative tumor volume (RTV)=Tumor volume at the measurement day/Tumor volume at the start day of administration

[3] = tested on: Human renal cell carcinoma line A-498 cells; assay: Antitumor effect in human renal cell carcinoma line A-498 subcutaneous transplantation model, nude mice
Procedure: Human renal cell carcinoma line A-498 cells (ATCC) were cultured by using RPMI1640 medium (Wako Pure Chemical Industries, Ltd.) containing 10% FBS in a 5% COz incubator under conditions of 37° C. When the cells became an approximately 100% confluent state, the cells were recovered by using trypsin-EDTA. A suspension was prepared by adding RPMI1640 medium containing 50% Matrigel to the cells so as to be 5.0×10^7 cells/mL. 0.1 mL of the obtained cell suspension was subcutaneously transplanted to the sides of the bodies of six nude mice (CAnN.Cg-Foxn1^nu/CrlCrlj, Charles River Laboratories Japan, Inc.) each of a control group, an E7386 50 mg/kg alone administration group, a lenvatinib mesylate 10 mg/kg alone administration group, and a combined administration group of 50 mg/kg E7386 and 10 mg/kg lenvatinib mesylate. From 27 days alter the transplantation, E7386 (50 mg/kg, q.d., 14 days, oral administration) and lenvatinib mesylate (10 mg/kg, q.d, 14 days, oral administration) were administered alone or in combination to the alone administration group or the combined administration group. For the administration, E7386 was dissolved in 0.1 mol/L hydrochloric acid, and lenvatinib mesylate was dissolved in 3 mmol/L hydrochloric acid. Any drug was not administered to the control group.
When the start day of administration was defined as day 1, the major axis and minor axis of tumor developed in each mouse were then measured at day 5, day 8, day 12, and day 15 by using Digimatic Caliper (Mitutoyo Corp.).
as §2

[4] = Day 4, lenvatinib mesylate 10 mg/kg q.d. oral alone
[5] = Day 8, lenvatinib mesylate 10 mg/kg q.d. oral alone
[6] = Day 11, lenvatinib mesylate 10 mg/kg q.d. oral alone
[7] = Day 15, lenvatinib mesylate 10 mg/kg q.d. oral alone
[8] = Day 4, E7386 12.5 mg/kg b.d.s. oral alone
[9] = Day 4, E7386 25 mg/kg b.d.s. oral alone
[10] = Day 4, E7386 50 mg/kg b.d.s. oral alone
[11] = Day 8, E7386 12.5 mg/kg b.d.s. oral alone
[12] = Day 8, E7386 25 mg/kg b.d.s. oral alone
[13] = Day 8, E7386 50 mg/kg b.d.s. oral alone
[14] = Day 11, E7386 12.5 mg/kg b.d.s. oral alone
[15] = Day 11, E7386 25 mg/kg b.d.s. oral alone
[16] = Day 11, E7386 50 mg/kg b.d.s. oral alone
[17] = Day 15, E7386 12.5 mg/kg b.d.s. oral alone
[18] = Day 15, E7386 25 mg/kg b.d.s. oral alone
[19] = Day 15, E7386 50 mg/kg b.d.s. oral alone

COc1cc2nccc(Oc3ccc(NC(=O)NC4CC4)c(Cl)c3)c2cc1C(N)=O [Lenvatinib mesylate, 4-(3-chloro-4-(cyclopropylaminocarbonyl)aminophenoxy)-7-methoxy-6-quinolinecarboxamide, reference compound]
Relative tumor volume (RTV), mean±SD [1, 4]: 1.03 ± 0.13 | Relative tumor volume (RTV), mean±SD [1, 5]: 0.87 ± 0.13 | Relative tumor volume (RTV), mean±SD [1, 6]: 0.98 ± 0.21 | Relative tumor volume (RTV), mean±SD [1, 7]: 1.05 ± 0.25 | Relative tumor volume (RTV), mean±SD [2, 4]: 1.71 ± 0.10 | Relative tumor volume (RTV), mean±SD [2, 5]: 3.57 ± 0.54 | Relative tumor volume (RTV), mean±SD [2, 6]: 5.15 ± 1.07 | Relative tumor volume (RTV), mean±SD [2, 7]: 6.23 ± 1.71 | Relative tumor volume (RTV), mean±SD ([3]; Day 5, lenvatinib mesylate 10 mg/kg q.d. oral alone): 1.08 ± 0.18 | Relative tumor volume (RTV), mean±SD [3, 5]: 1.35 ± 0.25 | Relative tumor volume (RTV), mean±SD ([3]; Day 12, lenvatinib mesylate 10 mg/kg q.d. oral alone): 1.21 ± 0.18 | Relative tumor volume (RTV), mean±SD [3, 7]: 1.20 ± 0.21

C=CCN1CC(=O)N2[C@@H](Cc3ccc(O)cc3F)C(=O)N(Cc3cccc(N4CC(N5CCN(CC)CC5)C4)n3)C[C@@H]2N1C(=O)NCc1ccccc1 [E7386, (6S,9aS)—N-Benzyl-8-({6-[3-(4-ethylpiperazin-1-yl)azetidin-1-yl]pyridin-2-yl}methyl)-6-(2-fluoro-4-hydroxybenzyl)-4,7-dioxo-2-(prop-2-en-1-yl)hexahydro-2H-pyrazino[2,1-c][1,2,4]triazine-1(6H)-carboxamide]
Relative tumor volume (RTV), mean±SD [1, 8]: 1.34 ± 0.25 | Relative tumor volume (RTV), mean±SD [1, 9]: 1.26 ± 0.28 | Relative tumor volume (RTV), mean±SD [1, 10]: 0.93 ± 0.23 | Relative tumor volume (RTV), mean±SD [1, 11]: 1.20 ± 0.40 | Relative tumor volume (RTV), mean±SD [1, 12]: 1.56 ± 0.48 | Relative tumor volume (RTV), mean±SD [1, 13]: 1.05 ± 0.26 | Relative tumor volume (RTV), mean±SD [1, 14]: 1.70 ± 0.67 | Relative tumor volume (RTV), mean±SD [1, 15]: 2.40 ± 0.22 | Relative tumor volume (RTV), mean±SD [1, 16]: 1.34 ± 0.35 | Relative tumor volume (RTV), mean±SD [1, 17]: 2.12 ± 0.65 | Relative tumor volume (RTV), mean±SD [1, 18]: 3.69 ± 0.92 | Relative tumor volume (RTV), mean±SD [1, 19]: 1.59 ± 1.03 | Relative tumor volume (RTV), mean±SD [2, 8]: 1.68 ± 0.13 | Relative tumor volume (RTV), mean±SD [2, 9]: 1.72 ± 0.10 | Relative tumor volume (RTV), mean±SD [2, 10]: 1.74 ± 0.09 | Relative tumor volume (RTV), mean±SD [2, 11]: 4.02 ± 0.40 | Relative tumor volume (RTV), mean±SD [2, 12]: 3.99 ± 0.62 | Relative tumor volume (RTV), mean±SD [2, 13]: 4.00 ± 0.66 | Relative tumor volume (RTV), mean±SD [2, 14]: 6.27 ± 0.93 | Relative tumor volume (RTV), mean±SD [2, 15]: 6.44 ± 1.09 | Relative tumor volume (RTV), mean±SD [2, 16]: 5.85 ± 1.42 | Relative tumor volume (RTV), mean±SD [2, 17]: 8.58 ± 2.48 | Relative tumor volume (RTV), mean±SD [2, 18]: 8.81 ± 2.14 | Relative tumor volume (RTV), mean±SD [2, 19]: 7.83 ± 2.28 | Relative tumor volume (RTV), mean±SD ([3]; Day 5, E7386 50 mg/kg q.d. oral alone): 1.33 ± 0.24 | Relative tumor volume (RTV), mean±SD ([3]; Day 8, E7386 50 mg/kg q.d. oral alone): 1.70 ± 0.26 | Relative tumor volume (RTV), mean±SD ([3]; Day 12, E7386 50 mg/kg q.d. oral alone): 2.04 ± 0.29 | Relative tumor volume (RTV), mean±SD ([3]; Day 15, E7386 50 mg/kg q.d. oral alone): 2.29 ± 0.33
